# Measurements: ChEMBL document CHEMBL5576054, “Lead compound profiling for small molecule inhibitors of the REV1-CT/RIR Translesion synthesis Protein-Protein interaction” (Bioorg Med Chem, 2024)
# Active and inactive are the calls of the source. No cut-off for these calls is given here.
# What was measured:
# [1] = Disruption of C-terminal REV-1/FAM-tagged Pol kappa RIR (unknown origin) interaction incubated for 1 hr by FP assay; parameters: species or system Homo sapiens
# A549 = assay: Inhibition of cologenic survival in human A549 cells incubated for 8 to 10 days by crystal violet staining based analysis; type: functional, cell-based; details: time 8-10 day
# [2] = Metabolic stability in human liver microsomes assessed as half life at 1 uM incubated upto 60 mins by LC-MS/MS analysis; type: ADME, Microsome; details: 1 h
# [3] = Metabolic stability in human liver microsomes assessed as intrinsic clearance at 1 uM incubated upto 60 mins by LC-MS/MS analysis; type: ADME, Microsome; details: 1 h
# [4] = Solubility of compound in PBS at pH 4; type: physicochemical; details: buffer
# [5] = Solubility of compound in PBS at pH 7.4; type: physicochemical
# [6] = biological target: T1, DNA repair protein REV1 (Homo sapiens) (UniProt Q9UBZ9); assay: Binding affinity to C-terminal human REV-1 incubated for 30 mins by MST assay
# T1 sequence (whole entry): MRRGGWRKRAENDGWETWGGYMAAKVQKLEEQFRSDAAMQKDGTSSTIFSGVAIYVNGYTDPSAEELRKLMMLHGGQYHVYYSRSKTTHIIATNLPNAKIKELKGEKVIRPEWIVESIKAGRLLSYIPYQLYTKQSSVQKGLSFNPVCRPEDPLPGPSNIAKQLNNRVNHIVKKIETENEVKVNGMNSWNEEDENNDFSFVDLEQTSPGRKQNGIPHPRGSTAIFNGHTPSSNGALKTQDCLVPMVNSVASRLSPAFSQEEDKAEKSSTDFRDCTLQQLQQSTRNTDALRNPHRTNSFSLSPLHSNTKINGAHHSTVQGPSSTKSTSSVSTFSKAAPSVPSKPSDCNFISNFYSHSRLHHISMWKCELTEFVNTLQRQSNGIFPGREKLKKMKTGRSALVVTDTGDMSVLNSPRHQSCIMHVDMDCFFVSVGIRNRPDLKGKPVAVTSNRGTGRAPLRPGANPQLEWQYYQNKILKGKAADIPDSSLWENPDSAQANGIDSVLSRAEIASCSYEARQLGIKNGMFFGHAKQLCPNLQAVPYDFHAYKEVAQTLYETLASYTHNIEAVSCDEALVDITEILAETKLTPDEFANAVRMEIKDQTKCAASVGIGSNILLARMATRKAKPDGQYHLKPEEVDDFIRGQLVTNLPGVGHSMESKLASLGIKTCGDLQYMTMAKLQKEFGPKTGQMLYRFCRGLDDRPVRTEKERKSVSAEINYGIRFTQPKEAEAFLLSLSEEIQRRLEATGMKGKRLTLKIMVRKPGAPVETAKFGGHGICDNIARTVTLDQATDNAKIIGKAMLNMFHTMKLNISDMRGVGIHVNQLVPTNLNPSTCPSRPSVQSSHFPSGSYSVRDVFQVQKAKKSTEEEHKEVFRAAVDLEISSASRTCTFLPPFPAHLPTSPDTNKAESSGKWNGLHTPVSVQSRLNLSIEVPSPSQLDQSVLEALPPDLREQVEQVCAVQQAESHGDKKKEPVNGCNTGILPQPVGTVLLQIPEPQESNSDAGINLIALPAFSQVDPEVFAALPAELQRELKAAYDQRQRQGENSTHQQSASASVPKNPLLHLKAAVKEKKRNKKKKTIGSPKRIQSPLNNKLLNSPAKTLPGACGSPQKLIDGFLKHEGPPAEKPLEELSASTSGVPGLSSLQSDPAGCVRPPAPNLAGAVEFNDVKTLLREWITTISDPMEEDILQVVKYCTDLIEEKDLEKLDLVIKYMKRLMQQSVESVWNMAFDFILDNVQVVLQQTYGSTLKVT
compound,measurement,setting,value
CCCc1cc(C(=O)OC)c(NC(=O)c2ccccc2)s1,IC50,[1],4.7 µM
CCCc1cc(C(=O)OCC)c(NC(=O)C2CCCNC2)s1 (stereo not drawn),IC50,[1],1.2 µM
CCCc1cc(C(=O)OCC)c(NC(=O)C2CCN(C(=O)OC(C)(C)C)CC2)s1,IC50,[1],2.3 µM
Cc1ccc(/N=N/c2ccc(N)nc2N)cc1C,inhibition,A549,Active
CCCc1cc(C(=O)OCC)c(NC(=O)c2ccccc2O)s1,IC50,[1],16.7 µM
C=CCOc1ccccc1C(=O)Nc1sc(CCC)cc1C(=O)OCC,IC50,[1],14.9 µM
Cc1ccc(C(=O)N2CCN(c3ccccc3)CC2)cc1S(=O)(=O)N1CCOCC1,t1/2,[2],6.6 min
same,intrinsic clearance (CLint),[3],210 µL/min/mg
same,solubility,[4],13.9 µM
same,solubility,[5],14.1 µM
Nc1ccc(/N=N/c2ccc3ccccc3c2)c(N)n1,inhibition,A549,Active
CCCc1cc(C(=O)OCC)c(NC(=O)C2CCN(C(C)=O)CC2)s1,IC50,[1],2.9 µM
Cc1cccn2c(=O)c3cc(C(=O)N[C@@H](C)c4ccccc4)c(N)[n+](CCOCCO)c3nc12,t1/2,[2],97.6 min
same,intrinsic clearance (CLint),[3],14.2 µL/min/mg
same,Activity,[6],inactive
same,IC50,[1],1.6 µM
same,solubility,[4],302 µM
same,solubility,[5],51.7 µM
CCCc1cc(C(=O)OCC)c(NC(=O)c2cccc(O)c2)s1,IC50,[1],2.5 µM
CCCc1cc(C(=O)OCC)c(NC(=O)C2CCCN(C(=O)OC(C)(C)C)C2)s1 (stereo not drawn),IC50,[1],2.5 µM
C=CCOc1ccc(C(=O)Nc2sc(CCC)cc2C(=O)OCC)cc1,IC50,[1],25.3 µM
Nc1ccc(/N=N/c2ccc3ccccc3c2)c(N)c1,inhibition,A549,Active
CCCc1cc(C(=O)OCC)c(NC(=O)C2CCNCC2)s1,IC50,[1],3.8 µM
